Source: PubChem BioAssay AID256 (DTP/NCI, 2004)
“And” between values parts separate entries of the source, which are not always exact repeats. Identical values can stand only once. Toxic doses and inconclusive results are not listed. How the source made its calls: active means survival T/C of 150% or more; inactive means T/C below 125% in these data.

System: CD2F1 mice, L1210 leukemia ip, survival T/C
Assay: NCI In Vivo Anticancer Drug Screen. Data for tumor model L1210 Leukemia (intraperitoneal) in CD2F1 (CDF1) mice
Conditions: higher = longer survival
Procedure, shortened: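 Tumor-bearing mice (transplanted tumor) were split into treated and vehicle control groups, and the measured endpoint of each treated group was divided by that of its vehicle controls.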

[1] = endpoint: mean survival time, dose: 100.0 mg/kg/injection, schedule: Q04DX003 (ip), vehicle: saline with Tween-80
[2] = endpoint: mean survival time, dose: 200.0 mg/kg/injection, schedule: Q04DX003 (ip), vehicle: saline with Tween-80
[3] = endpoint: mean survival time, dose: 400.0 mg/kg/injection, schedule: Q04DX003 (ip), vehicle: saline with Tween-80
[4] = endpoint: mean survival time, dose: 100.0 mg/kg/injection, schedule: Q01DX001 (ip), vehicle: saline with Tween-80
[5] = endpoint: mean survival time, dose: 200.0 mg/kg/injection, schedule: Q01DX001 (ip), vehicle: saline with Tween-80
[6] = endpoint: mean survival time, dose: 400.0 mg/kg/injection, schedule: Q01DX001 (ip), vehicle: saline with Tween-80
[7] = endpoint: mean survival time, dose: 100.0 mg/kg/injection, schedule: Q01DX009 (ip), vehicle: saline with Tween-80
[8] = endpoint: mean survival time, dose: 200.0 mg/kg/injection, schedule: Q01DX009 (ip), vehicle: saline with Tween-80
[9] = endpoint: mean survival time, dose: 400.0 mg/kg/injection, schedule: Q01DX009 (ip), vehicle: saline with Tween-80
[10] = endpoint: mean survival time, dose: 100.0 mg/kg/injection, schedule: Q04DX002 (ip), vehicle: saline with Tween-80
[11] = endpoint: mean survival time, dose: 200.0 mg/kg/injection, schedule: Q04DX002 (ip), vehicle: saline with Tween-80
[12] = endpoint: mean survival time, dose: 400.0 mg/kg/injection, schedule: Q04DX002 (ip), vehicle: saline with Tween-80

Measured: T/C

N#CN=Nc1ccc(Cl)cc1
inactive: endpoint: mean survival time, dose: 9.5 mg/kg/injection, schedule: Q01DX001 (ip), vehicle: other 97 % of control | endpoint: mean survival time, dose: 19.0 mg/kg/injection, schedule: Q01DX001 (ip), vehicle: other 97 % of control | endpoint: mean survival time, dose: 38.0 mg/kg/injection, schedule: Q01DX001 (ip), vehicle: other 89 % of control

COC(=O)c1cc(NC(C)=O)ccc1S(=O)(=O)c1ccc(NC(C)=O)cc1C(=O)OC
inactive: [1] 101 % of control | [2] 101 % of control | [3] 97 % of control

Fc1c(F)c(F)c(-c2nnc(-c3c(F)c(F)c(F)c(F)c3F)o2)c(F)c1F
inactive: [4] 96 % of control | [5] 96 % of control | [6] 95 % of control

C=CC[n+]1ccc2ccccc2c1
inactive: endpoint: mean survival time, dose: 100.0 mg/kg/injection, schedule: Q04DX003 (ip), vehicle: saline sonified 97 % of control

CCC1(CC)CCC(Br)C(Br)C1 (centres undefined)
inactive: [7] 94 % of control | [1] 95 % of control | [8] 94 % of control | [2] 98 % of control | [9] 89 % of control | [3] 93 % of control

CC(C)Oc1ccc2c(c1)Sc1ccc(Cl)cc1N2
inactive: [1] 93 % of control | [2] 96 % of control | [3] 102 % of control

O=C(CCc1ccc(O)cc1)N/N=C/c1ccc2c(c1)OCO2
inactive: [1] 90 % of control | [2] 90 % of control | [3] 88 % of control

CCOCCN=C(N)C(N)=NCCOCC
inactive: endpoint: mean survival time, dose: 50.0 mg/kg/injection, schedule: Q04DX002 (ip), vehicle: saline with Tween-80 102 % of control | [10] 98 % of control | [11] 94 % of control | [12] 94 % of control

Nc1ccn(C2OC(CO)C3OP(=O)(O)OC32)c(=O)n1 (centres undefined)
inactive: endpoint: mean survival time, dose: 12.5 mg/kg/injection, schedule: Q01DX005 (ip), vehicle: water 96 % of control | endpoint: mean survival time, dose: 25.0 mg/kg/injection, schedule: Q01DX005 (ip), vehicle: water 99 % of control | endpoint: mean survival time, dose: 50.0 mg/kg/injection, schedule: Q01DX005 (ip), vehicle: water 99 % of control | endpoint: mean survival time, dose: 100.0 mg/kg/injection, schedule: Q01DX005 (ip), vehicle: water 94 % of control | endpoint: mean survival time, dose: 200.0 mg/kg/injection, schedule: Q01DX005 (ip), vehicle: water 96 % of control

Nc1cccc2cc3ccccc3[n+]([O-])c12
inactive: [1] 104 % of control | [2] 108 % of control | [3] 95 % of control

O=C(O)CC(=O)O.[NH-]CC(O)C[N-]CC(O)CN.[Pt+2] (centres undefined)
inactive: endpoint: median survival time, dose: 10.0 mg/kg/injection, schedule: Q04DX003 (ip), vehicle: distilled water + Tween-80 101 % of control | endpoint: median survival time, dose: 20.0 mg/kg/injection, schedule: Q04DX003 (ip), vehicle: distilled water + Tween-80 101 % of control | endpoint: median survival time, dose: 40.0 mg/kg/injection, schedule: Q04DX003 (ip), vehicle: distilled water + Tween-80 104 % of control | endpoint: median survival time, dose: 66.5 mg/kg/injection, schedule: Q04DX003 (ip), vehicle: distilled water + Tween-80 107 % of control | endpoint: median survival time, dose: 80.0 mg/kg/injection, schedule: Q04DX003 (ip), vehicle: distilled water + Tween-80 106 % of control and 108 % of control | endpoint: median survival time, dose: 133.0 mg/kg/injection, schedule: Q04DX003 (ip), vehicle: distilled water + Tween-80 108 % of control | endpoint: median survival time, dose: 160.0 mg/kg/injection, schedule: Q04DX003 (ip), vehicle: distilled water + Tween-80 119 % of control | endpoint: median survival time, dose: 266.0 mg/kg/injection, schedule: Q04DX003 (ip), vehicle: distilled water + Tween-80 117 % of control | endpoint: median survival time, dose: 320.0 mg/kg/injection, schedule: Q04DX003 (ip), vehicle: distilled water + Tween-80 117 % of control

CC(/C=N\N=C(N)N)=N/N=C(N)N
inactive: endpoint: median survival time, dose: 5.0 mg/kg/injection, schedule: Q01DX009 (ip), vehicle: saline 94 % of control

CC1(C)COC(c2ccc(-c3ccc(C4=NC(C)(C)CO4)cc3)cc2)=N1
inactive: [4] 105 % of control | [5] 100 % of control | [6] 100 % of control

O=S(O)O.O=S(O)O.[Co].[NH2-].[NH2-].[NH2-].[NH2-]
inactive: [10] 108 % of control | [11] 108 % of control | [12] 119 % of control

CC1(C)CCC2(C)CCC3(C)C(=CCC4C5(C)CCC(O)C(C)(C)C5CCC43C)C2C1 (centres undefined)
inactive: [1] 98 % of control | [2] 90 % of control | [3] 91 % of control

COC1=CCC(OC)=C(C)C1
inactive: [1] 93 % of control

O=P(O)(O)CP(=O)(O)O.[NH-]CC[NH-].[NH-]CC[NH-].[Pt+2].[Pt+2]
inactive: endpoint: mean survival time, dose: 3.13 mg/kg/injection, schedule: Q04DX003 (ip), vehicle: distilled water + Tween-80 119 % of control | endpoint: mean survival time, dose: 6.25 mg/kg/injection, schedule: Q04DX003 (ip), vehicle: distilled water + Tween-80 92 % of control | endpoint: mean survival time, dose: 12.5 mg/kg/injection, schedule: Q04DX003 (ip), vehicle: distilled water + Tween-80 103 % of control | endpoint: mean survival time, dose: 25.0 mg/kg/injection, schedule: Q04DX003 (ip), vehicle: distilled water + Tween-80 109 % of control | endpoint: mean survival time, dose: 50.0 mg/kg/injection, schedule: Q04DX003 (ip), vehicle: distilled water + Tween-80 103 % of control | endpoint: mean survival time, dose: 100.0 mg/kg/injection, schedule: Q04DX003 (ip), vehicle: distilled water + Tween-80 109 % of control | endpoint: mean survival time, dose: 200.0 mg/kg/injection, schedule: Q04DX003 (ip), vehicle: distilled water + Tween-80 90 % of control

O=C1c2ccccc2C(=O)N1CCS(=O)(=O)O
inactive: [10] 97 % of control | [11] 94 % of control | [12] 94 % of control

Cc1cccc(S(=O)(=O)N(C)C)c1
inactive: [7] 95 % of control | [1] 94 % of control | [8] 95 % of control | [2] 92 % of control | [9] 92 % of control | [3] 96 % of control

CCOC(=O)CSc1ccccc1
inactive: endpoint: mean survival time, dose: 25.0 mg/kg/injection, schedule: Q01DX005 (ip), vehicle: Klucel (hydroxypropylcellulose) (HPC) 93 % of control | endpoint: mean survival time, dose: 50.0 mg/kg/injection, schedule: Q01DX005 (ip), vehicle: Klucel (hydroxypropylcellulose) (HPC) 95 % of control | endpoint: mean survival time, dose: 100.0 mg/kg/injection, schedule: Q01DX001 (ip), vehicle: saline 102 % of control | endpoint: mean survival time, dose: 100.0 mg/kg/injection, schedule: Q01DX005 (ip), vehicle: Klucel (hydroxypropylcellulose) (HPC) 102 % of control | endpoint: mean survival time, dose: 200.0 mg/kg/injection, schedule: Q01DX001 (ip), vehicle: saline 100 % of control | endpoint: mean survival time, dose: 200.0 mg/kg/injection, schedule: Q01DX005 (ip), vehicle: Klucel (hydroxypropylcellulose) (HPC) 95 % of control | endpoint: mean survival time, dose: 400.0 mg/kg/injection, schedule: Q01DX001 (ip), vehicle: saline 100 % of control | endpoint: mean survival time, dose: 400.0 mg/kg/injection, schedule: Q01DX005 (ip), vehicle: Klucel (hydroxypropylcellulose) (HPC) 95 % of control

CCCC(=O)NC1=C(Cl)C(=O)c2ccccc2C1=O
inactive: endpoint: mean survival time, dose: 5.0 mg/kg/injection, schedule: Q01DX001 (ip), vehicle: saline 88 % of control | endpoint: mean survival time, dose: 10.0 mg/kg/injection, schedule: Q01DX001 (ip), vehicle: saline 103 % of control | endpoint: mean survival time, dose: 20.0 mg/kg/injection, schedule: Q01DX001 (ip), vehicle: saline 95 % of control

CCOC(=O)C(C(C)=O)c1cc(NS(=O)(=O)c2ccccc2)ccc1O (centres undefined)
inactive: [1] 114 % of control | [2] 103 % of control | [3] 105 % of control

Nc1ncn[nH]1
inactive: endpoint: mean survival time, dose: 200.0 mg/kg/injection, schedule: Q01DX009 (ip), vehicle: Klucel (hydroxypropylcellulose) (HPC) 95 % of control | endpoint: mean survival time, dose: 400.0 mg/kg/injection, schedule: Q01DX009 (ip), vehicle: Klucel (hydroxypropylcellulose) (HPC) 106 % of control

O=C(COc1ccccc1)NC(=S)Nc1ccc([N+](=O)[O-])cc1Cl
inactive: [7] 88 % of control and 89 % of control | [10] 95 % of control | [8] 93 % of control and 94 % of control | [11] 87 % of control | [9] 92 % of control and 93 % of control | [12] 91 % of control

CC1CCCCC1NC(=O)Nc1ccccc1 (centres undefined)
inactive: [1] 94 % of control | [2] 92 % of control
